Marks after values point to notes of the source that are not given here.
Assays:
JAK1 = JAK1 (Homo sapiens, UniProt P23458); experiment: Biochemical kinase assay JAK1
Experimental: Test system: cell free assays; test items: IS181; concentrations tested: 1 ng/ml-5000 μg/ml; Kinases: a) Cell free assays: EGFR (ErbB1); FLT1 (VEGFR1); JAK1; JAK3 MAP2K1 (MEK1); PDGFRA (PDGFR alpha); PRKCA (PKC alpha); b) cell based assay: JAK-STAT.

[1] = tested on: Human endothelial cells (EA.hy 926); experiment: DNA fragmentation in endothelial cells; assay type: cell-based; details: for % induction of DNA fragmentation: EA.hy926, 48 h
Experimental: Cell lines: Human endothelial cells (EA.Hy 926); test item: IS 181; treatment regimen: multiple additions (2)—48 hours; concentration range: 100 μg/ml to 5000 μg/ml (Duplicate wells); sera condition: medium containing 1% FBS. […] Cells were lysed and fragmented DNA was precipitated using PEG/NaCl solution. The fragmented DNA was incubated with 0.2 μg/ml of Hoechst 33258 dye and fluorescence was read at 360 ex/460 em. End point: Percentage induction of DNA fragmentation with respect to untreated. Positive control: anthralin. IS 181 led to induction of DNA fragmentation in Ea.hy.926 cells at all the concentrations tested. […] The overall effect of IS 181 on induction of DNA fragmentation with respect to untreated in Ea.hy.926 cells ranged from 15.09% to 64.15% (FIGS. 10A-10B and Table-10).

[2] = Cell viability of splenocytes (MTT); assay type: cell-based, mouse; details: mouse, mouse splenocytes, splenocytes, 24 h
Experimental: (§1) Cell lines: mouse splenocytes; test item: IS181; treatment regimen: single addition—24 hours; concentration range: 10 μg/ml-5000 μg/ml.A) Identification of non-cytotoxic concentrations: splenocytes were treated with IS181 for 24 hours. Effect on cell viability was assessed by MTT assay. Concentrations leading to >75% cell viability were selected for IL-17 assay. B) IL-17 assay: splenocytes were treated with IS181 in presence of ConA stimulation for 24 hours. Supernatants were collected and stored at −20° C. till analysed. Levels of IL-17 were analysed in supernatants by ELISA. Percent inhibition of IL-17 secretion was calculated with reference to ConA treated levels. Positive control: curcumin.

mouse splenocytes = experiment: Cell viability of splenocytes (MTT); assay type: cell-based; details: splenocytes
Experimental: as §1

[3] = tested on: Human endothelial cells (EA.hy 926); experiment: Tube formation in endothelial cells; assay type: cell-based; design: endothelial morphogenesis on matrigel: dose or concentration left out as unconfirmed; details: Ea.hy.926, 8 hours
Experimental: Cell lines: Human endothelial cells (EA.Hy 926); test item: IS 181; treatment regimen; multiple additions (2)—48 hours; concentration range: 100 6 g/ml to 5000 6 g/ml (Duplicate wells); sera condition: medium containing 1% FBS. Non-cytotoxic concentrations of IS 181 were determined using MTT assay. EA.hy926 cells were plated on ECMatrix solution. Cells were treated with IS 181 for 8 hours. Endothelial tubes were visualized under inverted light microscope at 40× magnification and images were captured. End point: visual pattern recognition and scoring of photomicrographs (FIGS. 11A-11G) based on Table-11 below: […]

8-oxo-G = experiment: UVB damage: 8-oxo-G formation (ELISA); assay type: cell-based, human; details: HaCaT, UVB 30 mJ/cm2, 5 μg/ml
Experimental: Effect on Cyclobutane Pyrimidine Dimers (CPD); Effect on 8-oxo-G formation: Cell line: HaCaT (human keratinocytes); test items: IS 181; concentration range: 0.1-100 μg/ml (Duplicate wells). Method of estimation: Plating of cells; Sera starvation with 0.1% FBS (24 hours); treatment of cells with test items (24 hours); UVB damage (30 mJ/cm2)+Test items addition (24 hours); Cyclobutane pyrimidine dimers (CPD) and 8-oxo-G estimation using ELISA.

TSLP = experiment: LPS+PMA stimulated TSLP secretion in HaCaT; assay type: cell-based, Human; details: for TSLP % decrease with respect to LPS + PMA / TSLP Conc (pg/ml): HaCaT + LPS + PMA, 24 h
Experimental: Effect on pro-inflammatory cytokines against TNF-α/LPS+PMA stimulation: TNF-α; IFN-γ; TARC; TSLP; IL-6; IL-8: Cell lines: Human keratinocytes (HaCaT); test item (TI); IS181; experimental steps: pre-treatment of cells with TI for 2 hours; stimulation with TNF-α: 20 ng/ml; stimulation with LPS+PMA-10 μg/ml LPS+40 ng/ml PMA; supernatant collection for cytokine analysis after 24 hours; concentration range: 0.1 μg/ml-100 μg/ml (duplicate wells); cytokines: TNF-α; IFN-γ; TARC; TSLP; IL-6; IL-8. Method of estimating cytokines: ELISA; positive control: dexamethasone.
Cell line: HaCaT (Human Keratinocytes); TI Treatment regimen: Pretreatment for 2 h; TI Concentration range: 0.1 μg/ml-100 μg/ml (duplicate wells); TNF-α stimulation: 20 ng/ml; LPS+PMA stimulation: 10 μg/ml LPS+40 ng/ml PMA; Time point for supernatants collection: 24 h; Method of estimation: ELISA; Positive control: Dexamethasone

[4] = tested on: Human Keratinocytes (HaCaT); experiment: Cell cycle assay (Sub-G0/G1); assay type: cell-based; details: 48 h
Experimental: Cell lines: Human Keratinocytes (HaCaT); test Item: IS181; treatment regimen: treated twice (once after 24 hours)-48 hours; concentration range: 100 6 g/ml-5000 6 g/ml. […] Cells were treated with IS181 for 24 hours. After 24 h, cells were again treated with IS181 for 24 hours. After 48 h of first treatment, cells were harvested and fixed in ethanol overnight. Cells were washed and stained with Cell cycle reagent and acquired on flow cytometer. […] Positive control: Curcumin.

JAK1, sequence (P23458 whole entry): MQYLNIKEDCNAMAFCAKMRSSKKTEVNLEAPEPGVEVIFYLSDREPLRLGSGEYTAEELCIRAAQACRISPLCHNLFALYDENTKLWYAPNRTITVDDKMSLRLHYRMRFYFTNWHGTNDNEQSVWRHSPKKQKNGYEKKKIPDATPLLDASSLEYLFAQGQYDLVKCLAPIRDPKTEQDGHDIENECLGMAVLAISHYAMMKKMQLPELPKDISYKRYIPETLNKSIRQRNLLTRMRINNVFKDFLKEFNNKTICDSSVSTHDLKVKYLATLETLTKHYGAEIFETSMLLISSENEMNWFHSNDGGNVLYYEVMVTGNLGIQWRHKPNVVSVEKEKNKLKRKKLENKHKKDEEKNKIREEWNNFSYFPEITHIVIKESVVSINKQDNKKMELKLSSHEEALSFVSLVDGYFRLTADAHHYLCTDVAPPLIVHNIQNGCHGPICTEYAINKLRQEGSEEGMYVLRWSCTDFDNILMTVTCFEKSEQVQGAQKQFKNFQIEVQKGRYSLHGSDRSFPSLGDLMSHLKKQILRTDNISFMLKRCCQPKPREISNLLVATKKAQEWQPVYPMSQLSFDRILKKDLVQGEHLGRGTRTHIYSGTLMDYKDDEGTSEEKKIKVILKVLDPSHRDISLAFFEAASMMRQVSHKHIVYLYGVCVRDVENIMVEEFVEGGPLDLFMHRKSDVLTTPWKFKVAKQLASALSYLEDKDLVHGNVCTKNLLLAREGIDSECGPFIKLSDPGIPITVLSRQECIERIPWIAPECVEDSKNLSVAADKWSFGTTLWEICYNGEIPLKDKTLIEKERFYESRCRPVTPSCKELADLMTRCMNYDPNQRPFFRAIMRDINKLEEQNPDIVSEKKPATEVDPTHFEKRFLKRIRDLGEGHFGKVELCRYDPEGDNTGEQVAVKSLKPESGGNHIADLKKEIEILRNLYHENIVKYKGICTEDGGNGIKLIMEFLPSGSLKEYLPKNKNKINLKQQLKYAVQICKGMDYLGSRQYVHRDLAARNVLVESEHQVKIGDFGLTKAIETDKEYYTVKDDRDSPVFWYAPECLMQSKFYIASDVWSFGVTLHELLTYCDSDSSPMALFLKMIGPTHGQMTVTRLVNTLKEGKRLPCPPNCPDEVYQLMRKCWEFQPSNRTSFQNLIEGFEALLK

“H-WVQRVVEKFLK-OH [IS181, H-Trp-Val-Gln-Arg-Val-Val-Glu-Lys-Phe-Leu-Lys-OH]” showed an inhibition at 10 µg/mL (JAK1; 10 μg/ml) of 14%, an inhibition at 50 µg/mL (JAK1; cell free, 50 μg/ml) of 14% and an inhibition at 100 µg/mL (JAK1; cell free, 100 μg/ml) of -42%. The inhibition at 250 µg/mL (JAK1; cell free, 250 μg/ml) was -93%, the inhibition at 500 µg/mL (JAK1; cell free, 500 μg/ml) was -185% and the “% induction of DNA fragmentation” value ([1]; 100 μg/ml) was 15.09%. The “% induction of DNA fragmentation” value ([1]; 500 μg/ml) was 22.64%, the “% induction of DNA fragmentation” value ([1]; 1000 μg/ml) was 64.15% and the “% induction of DNA fragmentation” value ([1]; 2000 μg/ml) was 56.60%. The “% induction of DNA fragmentation” value ([1]; 5000 μg/ml) was 22.64%, the “overall effect on induction of DNA fragmentation with respect to untreated” value ([1]; Ea.hy.926, 48 h, 100 μg/ml to 5000 μg/ml) was 15.09% to 64.15% and the viability at 24 h, 10 μg/ml ([2]; 10 μg/ml) was 97%. It also gave a viability at 24 h, 50 μg/ml ([2]; 50 μg/ml) of 110%, a viability at 24 h, 100 μg/ml ([2]; 100 μg/ml) of 110% and a viability at 24 h, 500 μg/ml ([2]; 500 μg/ml) of 94.6%. It also gave a viability at 24 h, 1 mg/ml ([2]; 1 mg/ml) of 79.4%, a viability at 24 h, 2 mg/ml ([2]; 2 mg/ml) of 51.6% and a viability at 24 h, 5 mg/ml ([2]; 5 mg/ml) of 25.6%. For the same substance, the cytotoxicity (mouse splenocytes) was less than 25%, the cytotoxicity (mouse splenocytes; 2 mg/ml) was 48.4% and the cytotoxicity (mouse splenocytes; 5 mg/ml) was 74.4%. The “endothelial morphogenesis on matrigel” value [3] was “Complete inhibition”, the endothelial tube formation ([3]; 1 6 g/ml to 1000 6 g/m/1) was “block endothelial tube formation” and the “% Decrease in 8-OCO-G formation with respect to UVB irradiated untreated cells” value (8-oxo-G) was 15.5%. For the same substance, the “secretion of TSLP inhibited as compared to LPS+PMA stimulated cells” value (TSLP; 0.1 μg/ml-100 μg/ml) was 46.4%-53.6%, the TSLP inhibition (TSLP; HaCaT) was “good extent of TSLP and IL-8 inhibition” and the “TSLP % decrease with respect to LPS + PMA” value (“TSLP % decrease” for short) (TSLP; 0.1 μg/ml) was 49.4%. For the same substance, the “TSLP Conc (pg/ml)” value (TSLP; 0.1 μg/ml) was 62.9*** pg/ml, the “TSLP % decrease” value (TSLP; 1 μg/ml) was 47.9% and the “TSLP Conc (pg/ml)” value (TSLP; 1 μg/ml) was 64.7*** pg/ml. The “TSLP % decrease” value (TSLP; 5 μg/ml) was 46.4%, the “TSLP Conc (pg/ml)” value (TSLP; 5 μg/ml) was 66.6*** pg/ml and the “TSLP % decrease” value (TSLP; 10 μg/ml) was 53.6%. For the same substance, the “TSLP Conc (pg/ml)” value (TSLP; 10 μg/ml) was 57.6*** pg/ml, the “TSLP % decrease” value (TSLP; 100 μg/ml) was 49.8% and the “TSLP Conc (pg/ml)” value (TSLP; 100 μg/ml) was 62.4*** pg/ml. The “increase in pro-apoptotic cells (Sub-G0/G1 population) vs untreated” value (from here on “increase in pro-apoptotic cells”) ([4]; 100 μg/ml) was 9.1 fold, the “increase in pro-apoptotic cells” value ([4]; 500 μg/ml) was 7.1 fold and the “increase in pro-apoptotic cells” value ([4]; 1000 μg/ml) was 2.3 fold. For the same substance, the “increase in pro-apoptotic cells” value ([4]; 5000 μg/ml) was 29.7 fold.
